# Source: patent US20240218242A1, “COMPOUND, FLUORESCENT DYE, KIT, AND METHOD FOR DETECTING CELLS” (NATIONAL UNIVERSITY CORPORATION KOCHI UNIVERSITY, priority 2021, published 2024)
# How the values were obtained:
# [1] = Evaluation of light stability (fluorescence intensity over time under UV excitation); format: physicochemical; conditions: 3000 seconds after excitation by UV irradiation; toluene; 5 μM; excitation 378 nm; detection 483 nm
# Experimental: The light stability of the compound A obtained in Example 1 was evaluated.
# The light stability of the compound A and that of a commercially available solvatochromic dye Laurdan were compared (solvent: toluene; each dye concentration: 5 μM; excitation wavelength: 378 nm; detection wavelength: 483 nm). Laurdan is a compound with a CAS number of 74515-25-6. The fluorescence spectrum measurement was carried out using the same instrument as that used in Example 2.
# [2] = test system: human prostate cancer cells (PC3); test: Confocal fluorescence imaging of stained cells; format: cell-based; conditions: 500 nM, 30 minutes at room temperature; excitation 405 nm; green (490-590 nm) and red (655-755 nm) channels
# Experimental: Fluorescence imaging of cells was performed using the compound A obtained in Example 1. More specifically, confocal fluorescence imaging of human prostate cancer cells (PC3) stained with the compound A of the Example was performed (compound A concentration: 500 nM; excitation wavelength: 405 nm).
# For microscopic observation, a confocal scanning laser microscope (manufactured by Olympus Corporation, FV1000-D) was used. In the measurement, fluorescence was detected in a green (490-590 nm) channel and a red (655-755 nm) channel using a 405 nm laser light source.
# As the human prostate cancer cells used for the observation, cultured cells were used. The compound A (500 nM) was added to the cultured cells, and the mixture was allowed to stand at room temperature for 30 minutes, and then imaging was performed.
# [3] = Photophysical properties (absorption spectrum, fluorescence spectrum, fluorescence quantum yield) in organic solvents; format: physicochemical; conditions: 5 μM
# Experimental: The absorption spectrum and fluorescence spectrum in organic solvents of the compound A obtained in Example 1 were measured.
# (§1) The absorption spectrum and the fluorescence spectrum were measured using a UV-Visible/NIR spectrophotometer (V-670 manufactured by JASCO Corporation) and a spectrofluorometer (FP6600 manufactured by JASCO Corporation), respectively. The fluorescence quantum yield was measured using an absolute PL quantum yield spectrometer (Hamamatsu Photonics K.K.: C 9920-02V). The concentration of the compound A was 5 μM for each solvent. For solvent species, toluene, dichloromethane, DMSO, and ethanol were used.
# The absorption spectrum and fluorescence spectrum in organic solvents of the compound B obtained in Example 8 were measured.
# as §1, with “Corporation), respectively, in the same manner as in Example 2.” for “Corporation), respectively.”, “compound B” for “compound A”
# The absorption spectrum and fluorescence spectrum in organic solvents of the compound C obtained in Example 10 were measured.
# as §1, with “Corporation), respectively, in the same manner as in Example 2.” for “Corporation), respectively.”, “compound C” for “compound A”
# [4] = test system: human skin tissue (frozen tissue); test: Two-photon fluorescence imaging of stained human skin tissue; conditions: 10 μM; excitation 960 nm; in combination with clearing reagent (LUCID)
# Experimental: Human skin tissue (frozen tissue) imaging was performed using the compound A obtained in Example 1. More specifically, two-photon fluorescence imaging of human skin tissues (frozen tissues) stained with the compound A of the Example was performed (compound A concentration: 10 μM, excitation wavelength: 960 nm; a clearing reagent (LUCID) was used in combination.).
# For microscopy, a two-photon microscope A1R MP+(NIKON) was used. In the measurement, 960 nm was used as a laser light source for excitation for the compound A. Scanning was performed to a depth of 100 μm of the sample. The three-dimensional reconstructed image is obtained by processing the obtained data with attached software.
# Human skin tissues were embedded in paraffin and then cut out to prepare tissue sections. The preparation of the sections (thickness: 5 μm) was performed by the procedure usually performed in histopathological examination. For staining with the compound A dye, deparaffinization was performed by a conventional method, and then staining was performed by immersion in the aforementioned dye at room temperature for several days to one week. In practice, the tissues were sufficiently stained by immersion in the dye at room temperature for 2 to 3 days.
# [5] = Fluorescence spectrum measurement in lipid membrane (liposome); format: physicochemical; conditions: compound 2 μM, lipid 200 μM
# Experimental: The fluorescence spectrum of the compound A obtained in Example 1 in a lipid membrane (liposome) was measured. More specifically, the fluorescence spectrum of the compound A in a liposome composed of 1,2-dioleoyl-sn-glycero-3-phosphocholine (DOPC) and sphingomyelin (SM)/cholesterol (Chol) was measured (compound A concentration: 2 μM, lipid concentration: 200 μM). The fluorescence spectrum measurement was carried out using the same instrument as that used in Example 2.
# [6] = test system: human keratinocyte K16 (P4); test: Toxicity evaluation (MTT test); format: cell-based; conditions: 100 μM, 24 hours
# Experimental: The toxicity of fluorescence imaging of cells using the compound A obtained in Example 1 was evaluated. More specifically, the toxicity evaluation (MTT test) of the compound A to human keratinocyte K16 (P4) was performed. As a toxicity evaluation procedure, first, a medium containing the compound A at a maximum concentration of 100 μM (maximum DMSO concentration=0.5% v/v) was added to cells to prepare a 2-fold dilution series. After 24 hours, the medium was discarded and an MTT reagent ([…]) was added. After 3 hours, a 10% SDS reagent was added to the cells, and the absorbance at 570 nm was measured the next day.
smiles,measurement,setting,value
"CCCCCCCCCCCC(=O)c1ccc2cc(N(C)C)ccc2c1 [Laurdan, reference compound]",Fluorescence intensity (light stability),[1],≤ 0.6
CCCC(=O)/C=C/c1ccc2ccc3c(N4CCCCC4)ccc4ccc1c2c43 [compound A],Fluorescence in cell membrane (plasma membrane) and oil droplets (lipid droplet),[2],strong fluorescence was observed in the green channel
same,Fluorescence intensity (light stability),[1],the fluorescence intensity was maintained as it was
same,Fluorescence quantum yield,[3]; DCM,86%
same,Maximum absorption wavelength,[3]; DCM,427 nm
same,Maximum fluorescence wavelength,[3]; DCM,615 nm
same,Fluorescence quantum yield,[3]; DMSO,79%
same,Maximum absorption wavelength,[3]; DMSO,429 nm
same,Maximum fluorescence wavelength,[3]; DMSO,647 nm
same,Fluorescence quantum yield,[3]; EtOH,20%
same,Maximum absorption wavelength,[3]; EtOH,427 nm
same,Maximum fluorescence wavelength,[3]; EtOH,691 nm
same,Fluorescence quantum yield,[3]; Toluene,82%
same,Maximum absorption wavelength,[3]; Toluene,424 nm
same,Maximum fluorescence wavelength,[3]; Toluene,546 nm
same,Fluorescence solvatochromism,"[3]; toluene, dichloromethane, DMSO, ethanol",fluorescence solvatochromism sensitive to solvent polarity was observed
same,Staining of human skin tissue,[4],capable of strongly staining the membrane of each cell constituting the human skin tissue
same,Fluorescence quantum yield,[5]; DOPC liposome,37%
same,Maximum fluorescence wavelength,[5]; DOPC liposome,603 nm
same,Fluorescence quantum yield,[5]; SM/Chol liposome,72%
same,Maximum fluorescence wavelength,[5]; SM/Chol liposome,577 nm
same,cell viability,[6],93.9%
